In the test the target is T1, recombinant uPAR (Homo sapiens, UniProt Q03405).
T1 construct: purchased R&D systems
Briefly: Competitive ELISA uPAR binding assay (displacement of uPAR from immobilized urokinase). Particulars: for IC50 / Ki: ELISA assay, competition with urokinase for recombinant uPAR; for Ratio of IC50 (Compound)/IC50 6-ABT-1: relative to control 6-ABT-1. How it is done: The affinity of derivatives are assayed using a competitive ELISA binding assay. The assay involves the immobilization of urokinase, a natural high affinity ligand for uPAR followed by the addition of a fixed concentration of recombinant uPAR protein and increasing concentrations of test compounds which competes with urokinase for binding to the uPA binding site of uPAR. Following several washing steps, the amount of uPAR bound is quantified by a biotinylated anti-uPAR antibody and avidin-HRP and can be fit to a competitive binding model allowing for determination of the uPAR/test compound Kd.
All derivatives were assessed for their ability to hind selectively to recombinant uPAR in vitro using a competitive ELISA binding assay. DMSO stock solutions of each derivative stored at −20° C. were titrated into wells pre-coated with human urokinase (isolated from human urine, ProSpec 1 mg/mL deionized water 18.5 μM) in the presence of uPAR. Selective binding to uPAR by compounds at the uPA binding site competes with uPAR-uPA binding which is required for a positive UV 450 nm absorbance signal. Increasing concentrations of test compound displace increasing amounts of uPAR from uPA which is detected by anti-uPAR/biotin labeled antibodies followed by avidin-HRP.
ELISA assay substantially as described above was used to test certain of the compounds of the present invention for biological characteristics. In addition, the compound 6-ABT-1 as described in WO2017/023994 was tested as a control.

This is an account of results in patent US10780084B2, “Antibody-recruiting molecules for the treatment of cancer” (YALE UNIVERSITY, priority 2016, dated 2020).

T1 sequence (Q03405 23-305): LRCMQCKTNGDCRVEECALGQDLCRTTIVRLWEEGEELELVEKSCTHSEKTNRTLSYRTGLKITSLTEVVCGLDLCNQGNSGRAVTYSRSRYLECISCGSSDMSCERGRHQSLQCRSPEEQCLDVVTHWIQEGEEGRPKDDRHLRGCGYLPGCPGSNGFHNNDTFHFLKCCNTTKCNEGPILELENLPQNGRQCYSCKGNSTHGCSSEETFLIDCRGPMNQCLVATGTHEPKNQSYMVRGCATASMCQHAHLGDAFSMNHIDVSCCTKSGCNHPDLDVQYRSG

Take `O=C1c2ccccc2-c2onc3c(N4CCC(C(=O)NCCCOCCOCCOCCCNc5ccc([N+](=O)[O-])cc5[N+](=O)[O-])CC4)cc(Nc4ccc(S(=O)(=O)O)cc4S(=O)(=O)O)c1c23` [ARM-U2 derivative 6-ABT-5]: the IC50 was determined as 0.544 µM, the Ki came out at 11 nM and the “Ratio of IC50 (Compound)/IC50 6-ABT-1” value was found to be 0.7.

For the compound `O=C1c2ccccc2-c2onc3c(N4CCC(C(=O)NCCCOCCOCCOCCCNc5ccc([N+](=O)[O-])cc5[N+](=O)[O-])CC4)cc(Nc4ccc(S(=O)(=O)O)cc4)c1c23` [ARM-U2 derivative 7-ABT-5], the concentration for half-maximal inhibition (IC50) came out at 2.36 µM, the Ki came to 48.4 nM and the “Ratio of IC50 (Compound)/IC50 6-ABT-1” value worked out at 1.15.

Take `COc1ccc(Nc2cc(N3CCC(C(=O)NCCCOCCOCCOCCCNc4ccc([N+](=O)[O-])cc4[N+](=O)[O-])CC3)c3noc4c3c2C(=O)c2ccccc2-4)c(S(=O)(=O)O)c1` [ARM-U2 derivative 8-ABT-5]: the IC50 is 0.54 µM, the Ki was 11 nM and the “Ratio of IC50 (Compound)/IC50 6-ABT-1” value was 0.28.

Regarding `O=C1c2ccccc2-c2onc3c(N4CCC(C(=O)NCCCOCCOCCOCCCNc5ccc([N+](=O)[O-])cc5[N+](=O)[O-])CC4)cc(Nc4ccc(Cl)cc4S(=O)(=O)O)c1c23` [ARM-U2 derivative 9-ABT-5], the IC50 turned out to be 0.485 µM, the Ki amounted to 9.84 nM and the “Ratio of IC50 (Compound)/IC50 6-ABT-1” value is recorded as 0.255.

Consider `COC(=O)c1ccc(Nc2cc(N3CCC(C(=O)NCCCOCCOCCOCCCNc4ccc([N+](=O)[O-])cc4[N+](=O)[O-])CC3)c3noc4c3c2C(=O)c2ccccc2-4)cc1` [ARM-U2 derivative 10-ABT-5], for which the IC50 is over 100 µM, the Ki was over 2000 nM and the “Ratio of IC50 (Compound)/IC50 6-ABT-1” value worked out at 71.4.

For the compound `COC(=O)c1ccc(Nc2cc(N3CCC(C(=O)NCCCOCCOCCOCCCNc4ccc([N+](=O)[O-])cc4[N+](=O)[O-])CC3)c3noc4c3c2C(=O)c2ccccc2-4)c(C(=O)OC)c1` [ARM-U2 derivative 11-ABT-5], the IC50 is over 100 µM, the Ki is over 2000 nM and the “Ratio of IC50 (Compound)/IC50 6-ABT-1” value is over 56.

Consider `COC(=O)c1ccc(Nc2cc(N3CCC(C(=O)NCCCOCCOCCOCCCNc4ccc([N+](=O)[O-])cc4[N+](=O)[O-])CC3)c3noc4c3c2C(=O)c2ccccc2-4)c(Cl)c1` [ARM-U2 derivative 12-ABT-5], for which the IC50 was over 100 µM, the inhibitory constant (Ki) was over 2000 nM and the “Ratio of IC50 (Compound)/IC50 6-ABT-1” value is listed as 71.4.

Consider `COC(=O)c1cc(Nc2cc(N3CCC(C(=O)NCCCOCCOCCOCCCNc4ccc([N+](=O)[O-])cc4[N+](=O)[O-])CC3)c3noc4c3c2C(=O)c2ccccc2-4)nn1C` [ARM-U2 derivative 13-ABT-5], for which the IC50 is over 100 µM, the Ki was over 2000 nM and the “Ratio of IC50 (Compound)/IC50 6-ABT-1” value was 71.4.

In the case of `NS(=O)(=O)c1ccc(Nc2cc(N3CCC(C(=O)NCCCOCCOCCOCCCNc4ccc([N+](=O)[O-])cc4[N+](=O)[O-])CC3)c3noc4c3c2C(=O)c2ccccc2-4)cc1` [ARM-U2 derivative 14-ABT-5], the IC50 was over 100 µM, the Ki is over 2000 nM and the “Ratio of IC50 (Compound)/IC50 6-ABT-1” value worked out at 71.4.

Take `O=C1c2ccccc2-c2onc3c(N4CCC(C(=O)NCCCOCCOCCOCCCNc5ccc([N+](=O)[O-])cc5[N+](=O)[O-])CC4)cc(Nc4cc(C5CC5)no4)c1c23` [ARM-U2 derivative 15-ABT-5]: the IC50 came to 18 µM, the Ki was determined as 371 nM and the “Ratio of IC50 (Compound)/IC50 6-ABT-1” value is reported as 12.85.

With `CCOC(=O)c1cn(C)nc1Nc1cc(N2CCC(C(=O)NCCCOCCOCCOCCCNc3ccc([N+](=O)[O-])cc3[N+](=O)[O-])CC2)c2noc3c2c1C(=O)c1ccccc1-3` [ARM-U2 derivative 16-ABT-5], the IC50 worked out at 55.2 µM, the Ki was 1140 nM and the “Ratio of IC50 (Compound)/IC50 6-ABT-1” value stood at 39.41.

Consider `COC(=O)c1cc(OC)ccc1Nc1cc(N2CCC(C(=O)NCCCOCCOCCOCCCNc3ccc([N+](=O)[O-])cc3[N+](=O)[O-])CC2)c2noc3c2c1C(=O)c1ccccc1-3` [ARM-U2 derivative 17-ABT-5], for which the IC50 is over 100 µM, the Ki is over 2000 nM and the “Ratio of IC50 (Compound)/IC50 6-ABT-1” value is over 31.

Take `O=C(O)c1cc(Cl)ccc1Nc1cc(N2CCC(C(=O)NCCCOCCOCCOCCCNc3ccc([N+](=O)[O-])cc3[N+](=O)[O-])CC2)c2noc3c2c1C(=O)c1ccccc1-3` [ARM-U2 derivative 18-ABT-5]: the IC50 was 3.09 µM, the Ki worked out at 63.5 nM and the “Ratio of IC50 (Compound)/IC50 6-ABT-1” value turned out to be 0.98.

Consider `O=C1c2ccccc2-c2onc3c(N4CCC(C(=O)NCCCOCCOCCOCCCNc5ccc([N+](=O)[O-])cc5[N+](=O)[O-])CC4)cc(Nc4cc(S(=O)(=O)O)ccc4S(=O)(=O)O)c1c23` [ARM-U2 derivative 19-ABT-5], for which the IC50 turned out to be 2.57 µM, the Ki was 52.7 nM and the “Ratio of IC50 (Compound)/IC50 6-ABT-1” value came out at 0.81.

The term IC50 denotes the concentration needed to halve the response being measured. By Ki is commonly meant the equilibrium dissociation constant of an inhibitor or competing ligand from its target.
